Data set [1] in a line: Elimination (β phase) half-life in rats after intravenous administration, plasma levels by HPLC. The note with it: female, Wistar, rat, plasma, iv, 1 mg/kg.
Method: Female Wistar rats (240-300 g body weight) were anesthetized (ethylurethane, 2.5 g/ml in NaCl, 0.5 ml/100 g rat), after which the A. carotis located in the neck was exposed. A catheter inserted into this vessel enabled blood to be removed at specified times. The volume administered was 0.5 ml, while 0.9% NaCl was used as the administration solution. […] The resultant loss of blood was offset, immediately after removal of the sample, with 500 μl of 0.9% NaCl solution. Citrate plasma was obtained by centrifuging the blood at 1200×g for 10 min.
The target in the next data set is plasmin (Homo sapiens (Human), UniProt P00747). The experiment in a line: Inhibition constants for plasmin, determined in analogy to uPA. It is filed as biochemical.
The test system of data set [2] is lacZ-labeled human fibrosarcoma cell line (HT1080 AN PKZ12 K15-1). The experiment in a line: Inhibiting metastasis in an animal model (lung metastases, lacZ-labeled human fibrosarcoma cells i.v.). Conditions: mice, 2 i.p. doses of 1.5 mg/kg daily from day −1 to day 21, lungs evaluated on day 22. It is filed as in vivo, mice (strain CD1 nu/nu). The procedure:
The influence of the inhibitor benzylsulfonyl-dSer-Ser-4-amidinobenzylamide on metastasis was investigated in female mice (strain CD1 nu/nu, approx. 25 g body weight, Charles River, Sulzfeld). […] from a lacZ-labeled human fibrosarcoma cell line (HT1080 AN PKZ12 K15-1, dissolved in 200 μl of PBS) were administered to the mice i.v. (Krüger et al., Cancer Metastasis Rev. 1998-99, 17, 285-294 and Krüger et al., Oncogene 1998, 16, 2419-2423). The mice in the treated group (n=17) were given 2 i.p. doses (in each case 1.5 mg/kg) of the inhibitor daily from day −1 (one day before the tumor cell inoculation) through to the 21st day (a total of 23 days). The mice in the control group (n=10) were correspondingly given 200 μl of pyrogen-free water containing 5% (v/v) ethanol. On day 22, the mice were sacrificed and the lungs were fixed in 2% formalin and 0.2% glutaraldehyde; after that, the lungs were stained with X-Gal (5-Br-4-Cl-3-indolyl-β-D-galactoside) and the number of lung metastases was determined.

The target of a further data set is thrombin (Homo sapiens (Human), UniProt P00734). The experiment in a line: Inhibition constants for thrombin, determined in analogy to uPA. The data set is classed as biochemical.
In another data set the target is uPA (Homo sapiens (Human), UniProt P00749). As to the kind of experiment: Inhibition constants for uPA, determined as in Stürzebecher et al. 1997. The data set is classed as biochemical.
The target in another data set is trypsin (Bos taurus, UniProt P00760). As to the kind of experiment: Inhibition constants for trypsin, determined in analogy to uPA. It is filed as biochemical.
Chain of trypsin (P00760 24-246 limits assumed): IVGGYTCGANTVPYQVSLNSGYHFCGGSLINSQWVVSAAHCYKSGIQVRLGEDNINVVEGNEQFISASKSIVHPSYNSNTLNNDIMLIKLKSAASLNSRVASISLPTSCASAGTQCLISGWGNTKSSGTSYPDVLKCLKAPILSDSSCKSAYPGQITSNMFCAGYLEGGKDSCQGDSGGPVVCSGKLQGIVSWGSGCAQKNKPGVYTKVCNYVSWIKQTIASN

Where a name gives a salt, the structure may show the parent alone.

Chain of plasmin (P00747 581-810, species assumed): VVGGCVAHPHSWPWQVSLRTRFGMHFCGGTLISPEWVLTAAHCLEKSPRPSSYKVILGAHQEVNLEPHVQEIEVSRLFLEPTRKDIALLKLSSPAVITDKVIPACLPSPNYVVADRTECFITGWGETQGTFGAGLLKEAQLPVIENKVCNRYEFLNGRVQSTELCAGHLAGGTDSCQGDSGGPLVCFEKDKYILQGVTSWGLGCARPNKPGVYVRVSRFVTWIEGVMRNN
Chain of plasmin (P00747 97-580 partner, species assumed): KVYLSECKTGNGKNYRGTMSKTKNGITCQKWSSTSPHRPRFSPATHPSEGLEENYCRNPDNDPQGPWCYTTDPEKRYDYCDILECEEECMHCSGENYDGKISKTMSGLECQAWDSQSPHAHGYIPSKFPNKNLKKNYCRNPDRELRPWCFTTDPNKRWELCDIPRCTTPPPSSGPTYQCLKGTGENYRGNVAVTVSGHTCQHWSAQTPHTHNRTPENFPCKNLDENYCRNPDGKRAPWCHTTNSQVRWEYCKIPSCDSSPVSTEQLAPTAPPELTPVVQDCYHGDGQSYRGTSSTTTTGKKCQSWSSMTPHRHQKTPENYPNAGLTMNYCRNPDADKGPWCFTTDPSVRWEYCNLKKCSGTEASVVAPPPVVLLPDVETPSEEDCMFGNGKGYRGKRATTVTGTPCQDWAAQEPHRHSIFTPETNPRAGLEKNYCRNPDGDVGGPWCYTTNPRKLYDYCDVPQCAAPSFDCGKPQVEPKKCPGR

One may read the half-life as the time in which the quantity being followed falls by half. A lower half-life goes with fast loss. A word on the Ki: it is a dissociation constant, usually derived from enzyme kinetics or from competition with a known ligand. Regarding `N=C(N)c1ccc(CNC(=O)[C@H](CO)NC(=O)[C@@H](CO)NS(=O)(=O)Cc2ccccc2)cc1` [R=H, X=CH, R1=CH2—OH, Benzylsulfonyl-dSer-Ser-4-amidinobenzylamide×TFA], in data set [1], the half-life was 30 min. The Ki on plasmin was found to be 750 nM; at thrombin it was 14000 nM; on uPA, 25 nM. Moreover, the “number of lung metastases as compared with the control group (100%)” value in data set [2] stood at 4.6%.
Take “Benzylsulfonyl-dSer-Lys(CO—O-PEG5000-OMe)-4-amidinobenzylamide×Acetate [Example 9]”: the Ki on plasmin is 730 nM; at thrombin, 1700 nM; on trypsin, 34 nM; at uPA, 95 nM.

Values taken from patent US8476306B2, “Urokinase inhibitors, production and use thereof” (The Medicines Company (Leipzig) GmbH, priority 2002, dated 2013).
